Experimental data from patent US20240182513A1, “SEPARATION OF METAL IONS FROM A SAMPLE USING GLYCOLIPIDS” (ARIZONA BOARD OF REGENTS ON BEHALF OF THE UNIVERSITY OF …, priority 2021, published 2024).

Key:
[1] = Example 2.1 rhamnolipid precipitation, filtration, centrifugation: lead; conditions: for Treatment 2: Rhamnolipid and Filtration Cf / Treatment 3: Rhamnolipid and Centrifugation Cc / Treatment 1: Rhamnolipid Only Cr: lead concentration after treatment; for Treatment 2: Rhamnolipid and Filtration (Rf) efficiency of removal / Treatment 3: Rhamnolipid and Centrifugation (Rc) efficiency of removal / Treatment 1: Rhamnolipid Only (Rr) efficiency of removal: lead
Protocol: (§1) Structural variants of synthetic glycolipids were used to show the effect of the number and length of the hydrophobic tail(s) on rhamnolipid as a chemical precipitant. […] Solutions (10 mM) were made using nanopure water (≥18 MΩ-cm) then adjusted to a pH of 6.9±0.05 with HNO3 and NaOH. These solutions were made in advance and stored in the cold room for up to one month. They were brought to room temperature before each experiment.
(§2) Three metals were tested for binding with rhamnolipid. Lead as […] (Fisher Scientific, Waltham, MA, 99% purity), was chosen to represent a metal with high rhamnolipid-metal conditional stability constant; lanthanum as La(NO3)3 6(H2O) (Sigma-Aldrich, St. Louis, MO, 99.99% purity) was chosen as a representative REE; and magnesium as Mg(NO3)2 6(H2O) (Sigma-Aldrich, St. Louis, MO, 99% purity) was chosen to represent a metal with a low rhamnolipid-metal conditional stability constant (Hogan et al., 2017). Metal solutions (5 mM) were made using nanopure water (≥18 MΩ-cm) in 20 ml glass scintillation vials. All solutions were used within 15 min to ensure minimal adsorption to the glass vial.
(§3) Three glycolipid-based treatments were evaluated to remove metal from solution: (1) the addition of glycolipid with no further treatment (gravitational precipitation), (2) the addition of a glycolipid followed by filtration or (3) the addition of a glycolipid followed by centrifugation. Each metal (Pb, La, and Mg) was evaluated separately with each of the glycolipid structures. For each experiment, a metal solution was mixed with a glycolipid solution in a 1.7 ml reaction tube at varying molar ratios of glycolipid to metal: 0:1 (glycolipid-free control), 2:1, 5:1, and 10:1. The reactions were mixed in the order of nanopure water (≥18 MΩ-cm), glycolipid solution (10 mM), then metal solution (5 mM). The metal and glycolipid solutions were continuously stirred as they were aliquoted into the reaction tubes. The experiment was performed in triplicate.
(§4) The reaction tubes were mixed overnight (16 to 24 h) and then three samples were collected from each tube to measure the effect of each of the three treatments: a glycolipid only treatment sample, a filtration treatment sample, and a centrifugation treatment sample. Briefly, for the glycolipid only treatment samples all tubes were vortexed for approximately 5 sec immediately before removing 0.1 ml into a dilution tube of 2% trace metal grade nitric acid (12 to 14 ml) to minimize the settling of particles. For the filtration samples each reaction tube was vortexed for 5 sec and then a 0.6 ml aliquot was collected with a 1 ml syringe. A GHP acrodisc disk filter (hydrophilic polypropylene membrane, 0.45 μm pore size, 25 mm disc diameter) from Pall Life Sciences (Port Washington, New York) was then placed onto the end of the syringe and the solution was pushed through the filter. The void space in the disk filter holds approximately 0.5 ml, therefore around 0.1 ml of filtrate was collected into a dilution tube. For the centrifugation sample, the remaining solution was centrifuged at 10,000 RCF for 15 min. Approximately 0.1 ml of the supernatant was aliquoted into a dilution tube. Following collection, all samples were taken for metal analysis using ICP-MS.

[2] = Example 2.1 rhamnolipid precipitation, filtration, centrifugation: lanthanum; conditions: for Treatment 2: Rhamnolipid and Filtration Cf / Treatment 3: Rhamnolipid and Centrifugation Cc / Treatment 1: Rhamnolipid Only Cr: lanthanum concentration after treatment; for Treatment 2: Rhamnolipid and Filtration (Rf) efficiency of removal / Treatment 1: Rhamnolipid Only (Rr) efficiency of removal / Treatment 3: Rhamnolipid and Centrifugation (Rc) efficiency of removal: lanthanum
Protocol: as §1, §2, §3, §4

[3] = Example 2.1 rhamnolipid precipitation, filtration, centrifugation: magnesium; conditions: for Treatment 2: Rhamnolipid and Filtration Cf / Treatment 3: Rhamnolipid and Centrifugation Cc / Treatment 1: Rhamnolipid Only Cr: magnesium concentration after treatment; for Treatment 1: Rhamnolipid Only (Rr) efficiency of removal / Treatment 2: Rhamnolipid and Filtration (Rf) efficiency of removal / Treatment 3: Rhamnolipid and Centrifugation (Rc) efficiency of removal: magnesium
Protocol: as §1, §2, §3, §4

[4] = molar ratio rhamnolipid:lead 2 to 1
[5] = molar ratio rhamnolipid:lanthanum 2 to 1
[6] = molar ratio rhamnolipid:magnesium 2 to 1

CCCC(CC(=O)O)OC1O[C@@H](C)[C@H](O)[C@@H](O)[C@H]1O (stereo partly drawn) [Rha C6]
Treatment 2: Rhamnolipid and Filtration Cf ([1]; molar ratio 2 to 1): 0.115 ± 0.022 mmol/L
Treatment 3: Rhamnolipid and Centrifugation Cc ([1]; molar ratio 2 to 1): 0.313 ± 0.003 mmol/L
Treatment 1: Rhamnolipid Only Cr ([1]; molar ratio 5 to 1): 0.329 ± 0.014 mmol/L
Treatment 2: Rhamnolipid and Filtration Cf ([1]; molar ratio 5 to 1): 0.046 ± 0.017 mmol/L
Treatment 3: Rhamnolipid and Centrifugation Cc ([1]; molar ratio 5 to 1): 0.322 ± 0.004 mmol/L
Treatment 1: Rhamnolipid Only Cr ([1]; molar ratio 10 to 1): 0.316 ± 0.008 mmol/L
Treatment 2: Rhamnolipid and Filtration Cf ([1]; molar ratio 10 to 1): 0.119 ± 0.018 mmol/L
Treatment 3: Rhamnolipid and Centrifugation Cc ([1]; molar ratio 10 to 1): 0.323 ± 0.005 mmol/L
Treatment 1: Rhamnolipid Only Cr [1, 4]: 0.323 ± 0.005 mmol/L
Treatment 2: Rhamnolipid and Filtration (Rf) efficiency of removal ([1]; molar ratio 2 to 1): (64.0%)
Treatment 3: Rhamnolipid and Centrifugation (Rc) efficiency of removal ([1]; molar ratio 2 to 1): (2.2%)
Treatment 2: Rhamnolipid and Filtration (Rf) efficiency of removal ([1]; molar ratio 5 to 1): (85.8%)
Treatment 1: Rhamnolipid Only (Rr) efficiency of removal ([1]; molar ratio 10 to 1): (1.4%)
Treatment 2: Rhamnolipid and Filtration (Rf) efficiency of removal ([1]; molar ratio 10 to 1): (62.7%)
Treatment 2: Rhamnolipid and Filtration Cf ([2]; molar ratio 2 to 1): 0.143 ± 0.062 mmol/L
Treatment 3: Rhamnolipid and Centrifugation Cc ([2]; molar ratio 2 to 1): 0.324 ± 0.018 mmol/L
Treatment 1: Rhamnolipid Only Cr ([2]; molar ratio 5 to 1): 0.282 ± 0.026 mmol/L
Treatment 2: Rhamnolipid and Filtration Cf ([2]; molar ratio 5 to 1): 0.106 ± 0.026 mmol/L
Treatment 3: Rhamnolipid and Centrifugation Cc ([2]; molar ratio 5 to 1): 0.320 ± 0.024 mmol/L
Treatment 1: Rhamnolipid Only Cr ([2]; molar ratio 10 to 1): 0.332 ± 0.040 mmol/L
Treatment 2: Rhamnolipid and Filtration Cf ([2]; molar ratio 10 to 1): 0.114 ± 0.064 mmol/L
Treatment 3: Rhamnolipid and Centrifugation Cc ([2]; molar ratio 10 to 1): 0.294 ± 0.010 mmol/L
Treatment 1: Rhamnolipid Only Cr [2, 5]: 0.325 ± 0.026 mmol/L
Treatment 2: Rhamnolipid and Filtration (Rf) efficiency of removal ([2]; molar ratio 2 to 1): (51.8%)
Treatment 1: Rhamnolipid Only (Rr) efficiency of removal ([2]; molar ratio 5 to 1): (5.2%)
Treatment 2: Rhamnolipid and Filtration (Rf) efficiency of removal ([2]; molar ratio 5 to 1): (64.4%)
Treatment 2: Rhamnolipid and Filtration (Rf) efficiency of removal ([2]; molar ratio 10 to 1): (61.6%)
Treatment 3: Rhamnolipid and Centrifugation (Rc) efficiency of removal ([2]; molar ratio 10 to 1): (1.1%)
Treatment 2: Rhamnolipid and Filtration Cf ([3]; molar ratio 2 to 1): 0.202 ± 0.016 mmol/L
Treatment 3: Rhamnolipid and Centrifugation Cc ([3]; molar ratio 2 to 1): 0.265 ± 0.010 mmol/L
Treatment 1: Rhamnolipid Only Cr ([3]; molar ratio 5 to 1): 0.248 ± 0.013 mmol/L
Treatment 2: Rhamnolipid and Filtration Cf ([3]; molar ratio 5 to 1): 0.178 ± 0.020 mmol/L
Treatment 3: Rhamnolipid and Centrifugation Cc ([3]; molar ratio 5 to 1): 0.255 ± 0.001 mmol/L
Treatment 1: Rhamnolipid Only Cr ([3]; molar ratio 10 to 1): 0.258 ± 0.011 mmol/L
Treatment 2: Rhamnolipid and Filtration Cf ([3]; molar ratio 10 to 1): 0.165 ± 0.001 mmol/L
Treatment 3: Rhamnolipid and Centrifugation Cc ([3]; molar ratio 10 to 1): 0.272 ± 0.016 mmol/L
Treatment 1: Rhamnolipid Only Cr [3, 6]: 0.247 ± 0.014 mmol/L
Treatment 1: Rhamnolipid Only (Rr) efficiency of removal ([3]; molar ratio 2 to 1): (7.6%)
Treatment 2: Rhamnolipid and Filtration (Rf) efficiency of removal ([3]; molar ratio 2 to 1): (24.5%)
Treatment 3: Rhamnolipid and Centrifugation (Rc) efficiency of removal ([3]; molar ratio 2 to 1): (0.9%)
Treatment 1: Rhamnolipid Only (Rr) efficiency of removal ([3]; molar ratio 5 to 1): (7.3%)
Treatment 2: Rhamnolipid and Filtration (Rf) efficiency of removal ([3]; molar ratio 5 to 1): (33.4%)
Treatment 3: Rhamnolipid and Centrifugation (Rc) efficiency of removal ([3]; molar ratio 5 to 1): (4.9%)
Treatment 1: Rhamnolipid Only (Rr) efficiency of removal ([3]; molar ratio 10 to 1): (3.6%)
Treatment 2: Rhamnolipid and Filtration (Rf) efficiency of removal ([3]; molar ratio 10 to 1): (38.2%)

CCCCCCCC(CC(=O)O)OC1O[C@@H](C)[C@H](O)[C@@H](O)[C@H]1O (stereo partly drawn) [Rha C10]
Treatment 3: Rhamnolipid and Centrifugation Cc ([1]; molar ratio 2 to 1): 0.320 ± 0.045 mmol/L
Treatment 1: Rhamnolipid Only Cr ([1]; molar ratio 5 to 1): 0.293 ± 0.006 mmol/L
Treatment 2: Rhamnolipid and Filtration Cf ([1]; molar ratio 5 to 1): 0.028 ± 0.031 mmol/L
Treatment 3: Rhamnolipid and Centrifugation Cc ([1]; molar ratio 5 to 1): 0.288 ± 0.002 mmol/L
Treatment 1: Rhamnolipid Only Cr ([1]; molar ratio 10 to 1): 0.232 ± 0.009 mmol/L
Treatment 2: Rhamnolipid and Filtration Cf ([1]; molar ratio 10 to 1): 0.001 ± 0.000 mmol/L
Treatment 3: Rhamnolipid and Centrifugation Cc ([1]; molar ratio 10 to 1): 0.231 ± 0.003 mmol/L
Treatment 1: Rhamnolipid Only Cr [1, 4]: 0.320 ± 0.012 mmol/L
Treatment 1: Rhamnolipid Only (Rr) efficiency of removal ([1]; molar ratio 2 to 1): (2.7%)
Treatment 2: Rhamnolipid and Filtration (Rf) efficiency of removal ([1]; molar ratio 2 to 1): (88.8%)
Treatment 3: Rhamnolipid and Centrifugation (Rc) efficiency of removal ([1]; molar ratio 2 to 1): (2.5%)
Treatment 1: Rhamnolipid Only (Rr) efficiency of removal ([1]; molar ratio 5 to 1): (10.7%)
Treatment 2: Rhamnolipid and Filtration (Rf) efficiency of removal ([1]; molar ratio 5 to 1): (91.6%)
Treatment 3: Rhamnolipid and Centrifugation (Rc) efficiency of removal ([1]; molar ratio 5 to 1): (12.2%)
Treatment 1: Rhamnolipid Only (Rr) efficiency of removal ([1]; molar ratio 10 to 1): (29.3%)
Treatment 2: Rhamnolipid and Filtration (Rf) efficiency of removal ([1]; molar ratio 10 to 1): (99.8%)
Treatment 3: Rhamnolipid and Centrifugation (Rc) efficiency of removal ([1]; molar ratio 10 to 1): (29.7%)
Treatment 2: Rhamnolipid and Filtration Cf ([2]; molar ratio 2 to 1): 0.096 ± 0.025 mmol/L
Treatment 3: Rhamnolipid and Centrifugation Cc ([2]; molar ratio 2 to 1): 0.228 ± 0.013 mmol/L
Treatment 1: Rhamnolipid Only Cr ([2]; molar ratio 5 to 1): 0.246 ± 0.016 mmol/L
Treatment 2: Rhamnolipid and Filtration Cf ([2]; molar ratio 5 to 1): 0.015 ± 0.010 mmol/L
Treatment 3: Rhamnolipid and Centrifugation Cc ([2]; molar ratio 5 to 1): 0.088 ± 0.003 mmol/L
Treatment 1: Rhamnolipid Only Cr ([2]; molar ratio 10 to 1): 0.190 ± 0.004 mmol/L
Treatment 2: Rhamnolipid and Filtration Cf ([2]; molar ratio 10 to 1): 0.022 ± 0.028 mmol/L
Treatment 3: Rhamnolipid and Centrifugation Cc ([2]; molar ratio 10 to 1): 0.051 ± 0.010 mmol/L
Treatment 1: Rhamnolipid Only Cr [2, 5]: 0.282 ± 0.009 mmol/L
Treatment 2: Rhamnolipid and Filtration (Rf) efficiency of removal ([2]; molar ratio 2 to 1): (65.7%)
Treatment 3: Rhamnolipid and Centrifugation (Rc) efficiency of removal ([2]; molar ratio 2 to 1): (18.6%)
Treatment 1: Rhamnolipid Only (Rr) efficiency of removal ([2]; molar ratio 5 to 1): (12.3%)
Treatment 2: Rhamnolipid and Filtration (Rf) efficiency of removal ([2]; molar ratio 5 to 1): (94.6%)
Treatment 3: Rhamnolipid and Centrifugation (Rc) efficiency of removal ([2]; molar ratio 5 to 1): (68.7%)
Treatment 1: Rhamnolipid Only (Rr) efficiency of removal ([2]; molar ratio 10 to 1): (32.2%)
Treatment 2: Rhamnolipid and Filtration (Rf) efficiency of removal ([2]; molar ratio 10 to 1): (92.1%)
Treatment 3: Rhamnolipid and Centrifugation (Rc) efficiency of removal ([2]; molar ratio 10 to 1): (81.7%)
Treatment 2: Rhamnolipid and Filtration Cf ([3]; molar ratio 2 to 1): 0.328 ± 0.036 mmol/L
Treatment 3: Rhamnolipid and Centrifugation Cc ([3]; molar ratio 2 to 1): 0.497 ± 0.014 mmol/L
Treatment 1: Rhamnolipid Only Cr ([3]; molar ratio 5 to 1): 0.492 ± 0.007 mmol/L
Treatment 2: Rhamnolipid and Filtration Cf ([3]; molar ratio 5 to 1): 0.283 ± 0.059 mmol/L
Treatment 3: Rhamnolipid and Centrifugation Cc ([3]; molar ratio 5 to 1): 0.500 ± 0.008 mmol/L
Treatment 1: Rhamnolipid Only Cr ([3]; molar ratio 10 to 1): 0.503 ± 0.004 mmol/L
Treatment 2: Rhamnolipid and Filtration Cf ([3]; molar ratio 10 to 1): 0.317 ± 0.073 mmol/L
Treatment 3: Rhamnolipid and Centrifugation Cc ([3]; molar ratio 10 to 1): 0.490 ± 0.004 mmol/L
Treatment 1: Rhamnolipid Only Cr [3, 6]: 0.486 ± 0.021 mmol/L
Treatment 1: Rhamnolipid Only (Rr) efficiency of removal ([3]; molar ratio 2 to 1): (3.1%)
Treatment 2: Rhamnolipid and Filtration (Rf) efficiency of removal ([3]; molar ratio 2 to 1): (34.6%)
Treatment 3: Rhamnolipid and Centrifugation (Rc) efficiency of removal ([3]; molar ratio 2 to 1): (0.8%)
Treatment 1: Rhamnolipid Only (Rr) efficiency of removal ([3]; molar ratio 5 to 1): (1.8%)
Treatment 2: Rhamnolipid and Filtration (Rf) efficiency of removal ([3]; molar ratio 5 to 1): (43.6%)
Treatment 3: Rhamnolipid and Centrifugation (Rc) efficiency of removal ([3]; molar ratio 5 to 1): (0.2%)
Treatment 2: Rhamnolipid and Filtration (Rf) efficiency of removal ([3]; molar ratio 10 to 1): (36.7%)
Treatment 3: Rhamnolipid and Centrifugation (Rc) efficiency of removal ([3]; molar ratio 10 to 1): (2.2%)
